According to publication PMC4992173, “Divergent synthesis and identification of the cellular targets of deoxyelephantopins” (Nature Communications, 2016):

Target: T1, Thioredoxin domain-containing protein 12 (TXNDC12) (Homo sapiens, UniProt O95881)
T1 construct: endogenous in cells; host or cells: MCF7
Assay: SILAC competitive profiling with probe 24c in MCF7 lysates: TXNDC12
Assay type: binding
Details: 1 h, then 10 µM 24c
Source text: In our efforts to determine the direct molecular targets of deoxyelephantopin we first performed a gel-based competitive in situ proteomic profiling assay[41] […] While the greater conformational flexibility of probe 24c could potentially lead to more promiscuous target engagement relatively to deoxyelephantopin, it was favoured based on the fact that an alkyne moiety appended to the rigid scaffold of deoxyelephantopin may hinder some of its interactions. MCF7 cells were pretreated with various concentrations of deoxyelephantopin for 4 h, harvested, lysed and the lysates were treated with the fluorogenic probe 24c-Cy3 (10 μM; Supplementary Fig. 10). […] Furthermore, cells were pretreated with 20 μM concentration of deoxyelephantopin or 24c and the proteomic profiles were compared (Fig. 6b, Supplementary Fig. 11). Multiple bands were detected that were equally competed by both DEP and 24c, thus again confirming that 24c can be used as an acceptable clickable analogue of deoxyelephantopin in pulldown assays. Having established the optimal labelling conditions by SDS–PAGE, we next carried out a mass spectrometry-based competitive profiling assay[42] coupled with the method of stable isotope labelling of amino acids in culture (SILAC)[43]. […]
visualization were performed as described above. Images were quantified with ImageJ and kinetics values were calculated using GraphPad Prism (V6.03). […]

T1 sequence (O95881 27-172): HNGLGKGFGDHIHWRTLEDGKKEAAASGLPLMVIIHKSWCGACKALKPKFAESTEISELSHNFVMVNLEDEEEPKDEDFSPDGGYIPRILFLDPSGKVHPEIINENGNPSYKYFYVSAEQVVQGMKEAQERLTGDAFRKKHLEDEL

C=C(C)C(=O)O[C@H]1CC2=C[C@@H](C/C(C)=C/[C@H]3OC(=O)C(=C)[C@H]13)OC2=O [deoxyelephantopin]
SILAC ratio 20 µM Deoxyelephantopin/DMSO with 24c: 0.12
